Measured values as given in ChEMBL document CHEMBL1201862, “PubChem BioAssay data set” (2004).
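Compound exposure: 48 hours, 5 concentrations, 96-well plates. Here, GI50 denotes the concentration required for 50% inhibition of growth.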 Activity calls are given as the source filed them. No stated cut-off is given here; in the data, active = GI50 up to about 1.1 µM and inactive = higher.

How the values were obtained:
Test in all cases: inhibition of tumour cell growth, NCI panel, 48 h
Hs-578T = test system: Hs-578T
SK-MEL-2 = test system: SK-MEL-2
NCI-H522 = test system: NCI-H522
SW-620 = test system: SW-620
SR = test system: SR
DU-145 = test system: DU-145
LOX IMVI = test system: LOX IMVI
U-251 = test system: U-251
CAKI-1 = test system: CAKI-1
HOP-92 = test system: HOP-92
TK-10 = test system: TK-10
SF-539 = test system: SF-539
COLO 205 = test system: COLO 205
UACC-62 = test system: UACC-62
SF-295 = test system: SF-295
RPMI-8226 = test system: RPMI-8226
K562 = test system: K562
MOLT-4 = test system: MOLT-4
NCI-H460 = test system: NCI-H460
MDA-N = test system: MDA-N

Measured: GI50

CNC(=O)c1cc2nc3ccccc3c(=O)n2c2ccccc12
inactive: Hs-578T > 10 µM | SK-MEL-2 > 10 µM | NCI-H522 > 10 µM | SW-620 > 10 µM | SR > 10 µM | DU-145 > 10 µM | LOX IMVI > 10 µM | U-251 > 10 µM | CAKI-1 > 10 µM | HOP-92 > 10 µM | TK-10 > 10 µM | SF-539 > 10 µM | COLO 205 > 10 µM | UACC-62 > 10 µM | SF-295 > 10 µM | RPMI-8226 > 10 µM | K562 > 10 µM | MOLT-4 > 10 µM

O=C(Nc1c(O)[nH]c(=S)[nH]c1=O)c1ccc2ccccc2n1
inactive: NCI-H522 > 100 µM | SW-620 > 100 µM | SR > 100 µM | LOX IMVI > 100 µM | U-251 > 100 µM | CAKI-1 > 100 µM | HOP-92 > 100 µM | TK-10 > 100 µM | SF-539 > 100 µM | NCI-H460 > 100 µM | COLO 205 > 100 µM | UACC-62 > 100 µM | SF-295 > 100 µM | RPMI-8226 > 100 µM | K562 > 100 µM | MOLT-4 > 100 µM

CC[C@]12C=CCN3CCC4(c5cc([C@@]6(C(=O)OC)CC7CN(CCc8c6[nH]c6ccccc86)C[C@@H]6CCC[C@H]76)c(OC)cc5N(C)C4[C@](O)(C(=O)OC)C1OC(C)=O)C32 (stereo partly specified)
active: SK-MEL-2 0.179 µM | NCI-H522 0.0188 µM | SW-620 0.122 µM | SR 0.0528 µM | DU-145 0.0165 µM | LOX IMVI 0.141 µM | U-251 0.106 µM | MDA-N 0.00363 µM | CAKI-1 0.962 µM | HOP-92 0.526 µM | SF-539 0.11 µM | NCI-H460 0.142 µM | COLO 205 0.083 µM | UACC-62 0.0728 µM | SF-295 0.0986 µM | RPMI-8226 0.141 µM | K562 0.0513 µM | MOLT-4 0.155 µM

O=c1c2ccccc2n2c(-c3ccccc3O)nnc2n1-c1ccccc1
inactive: SK-MEL-2 > 100 µM | NCI-H522 > 100 µM | SW-620 > 100 µM | SR > 100 µM | DU-145 > 100 µM | LOX IMVI > 100 µM | U-251 > 100 µM | MDA-N > 100 µM | CAKI-1 > 100 µM | HOP-92 > 100 µM | TK-10 > 100 µM | SF-539 > 100 µM | NCI-H460 > 100 µM | COLO 205 > 100 µM | UACC-62 > 100 µM | SF-295 > 100 µM | K562 > 100 µM | MOLT-4 > 100 µM

Cc1ccc(S(=O)(=O)NC(=O)NC(Cc2ccc(O)c(O)c2)C(=O)O)cc1 (stereo unspecified)
inactive: SK-MEL-2 > 100 µM | NCI-H522 > 100 µM | SW-620 24.9 µM | DU-145 > 100 µM | LOX IMVI > 100 µM | U-251 > 100 µM | MDA-N > 100 µM | CAKI-1 > 100 µM | HOP-92 80.5 µM | TK-10 > 100 µM | NCI-H460 > 100 µM | COLO 205 > 100 µM | UACC-62 > 100 µM | SF-295 > 100 µM | RPMI-8226 55.7 µM | K562 37.1 µM | MOLT-4 > 100 µM

CCCCC(=O)Nc1ccc2c(C)cc(-c3ccc(-c4cc(-c5ccc(C)cc5)cc(-c5ccc(-c6cc(C)c7ccc(NC(=O)CCCC)nc7n6)cc5)n4)cc3)nc2n1
inactive: SK-MEL-2 > 100 µM | NCI-H522 > 100 µM | DU-145 > 100 µM | U-251 > 100 µM | MDA-N > 100 µM | CAKI-1 > 100 µM | HOP-92 78.9 µM | TK-10 > 100 µM | NCI-H460 > 100 µM | COLO 205 > 100 µM | UACC-62 > 100 µM | SF-295 > 100 µM | RPMI-8226 > 100 µM | K562 > 100 µM | MOLT-4 > 100 µM

COC(=O)/C=C/CCC#Cc1ccccc1C#CCC/C=C/C(=O)OC
inactive: NCI-H522 3.57 µM | SW-620 4.89 µM | SR 3.43 µM | DU-145 32 µM | LOX IMVI 4.99 µM | U-251 4.32 µM | MDA-N 4.47 µM | CAKI-1 2.88 µM | HOP-92 15.7 µM | TK-10 30.7 µM | SF-539 10.5 µM | NCI-H460 12.4 µM | COLO 205 5.48 µM | UACC-62 12.6 µM | SF-295 13.2 µM | K562 1.76 µM | MOLT-4 3.01 µM

Cc1ccccc1-c1cc(=O)c2cc(C)c(C)c(C(=O)O)c2o1
inactive: SK-MEL-2 > 100 µM | NCI-H522 > 100 µM | SW-620 > 100 µM | SR > 100 µM | LOX IMVI > 100 µM | U-251 > 100 µM | CAKI-1 > 100 µM | HOP-92 > 100 µM | TK-10 > 100 µM | SF-539 > 100 µM | NCI-H460 > 100 µM | COLO 205 > 100 µM | UACC-62 > 100 µM | SF-295 > 100 µM | RPMI-8226 > 100 µM | K562 > 100 µM | MOLT-4 > 100 µM
